Measurements from US6610677B2, “Pyrazole compounds useful as protein kinase inhibitors” (Vertex Pharmaceuticals Incorporated, priority 2000, dated 2003).

Assays:
[1] = molecular target: T1, Aurora-2 (Homo sapiens, UniProt O14965); assay: Ki determination for the inhibition of Aurora-2 (coupled enzyme assay); assay type: biochemical; conditions: 70 nM Aurora-2, peptide LRRASLG, 30° C
T1 sequence (O14965 1-403): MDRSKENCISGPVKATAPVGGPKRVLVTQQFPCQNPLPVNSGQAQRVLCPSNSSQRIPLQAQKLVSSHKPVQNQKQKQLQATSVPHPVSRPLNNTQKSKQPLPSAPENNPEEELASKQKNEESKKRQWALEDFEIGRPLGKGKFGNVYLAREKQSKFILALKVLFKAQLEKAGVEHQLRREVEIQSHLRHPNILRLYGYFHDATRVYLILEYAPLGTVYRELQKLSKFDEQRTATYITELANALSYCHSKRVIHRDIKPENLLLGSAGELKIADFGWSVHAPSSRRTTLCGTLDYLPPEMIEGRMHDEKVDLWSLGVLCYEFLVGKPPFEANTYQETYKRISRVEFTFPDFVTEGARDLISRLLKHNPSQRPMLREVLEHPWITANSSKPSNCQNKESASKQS
Description: Compounds were screened in the following manner for their ability to inhibit Aurora-2 using a standard coupled enzyme assay (Fox et al (1998) Protein Sci 7, 2249).
To an assay stock buffer solution containing 0.1M HEPES 7.5, 10 mM MgCl2, 1 mM DTT, 25 mM NaCl, 2.5 mM phosphoenolpyruvate, […], 30 mg/ml pyruvate kinase, 10 mg/ml lactate dehydrogenase, […], and 800 μM peptide (LRRASLG, American Peptide, Sunnyvale, Calif.) was added a DMSO solution of a compound of the present invention to a final concentration of 30 μM. The resulting mixture was incubated at 30° C. for 10 min. The reaction was initiated by the addition of 10 μL of Aurora-2 stock solution to give a final concentration of 70 nM in the assay. The rates of reaction were obtained by monitoring absorbance at 340 nm over a 5 minute read time at 30° C. using a BioRad Ultramark plate reader (Hercules, Calif.). The Ki values were determined from the rate data as a function of inhibitor concentration.

[2] = molecular target: T2, GSK-3β (AA 1-420) (Homo sapiens, UniProt P49841); assay: Ki determination for the inhibition of GSK-3 (coupled enzyme system); assay type: biochemical; conditions: 20 μM ATP, 300 μM peptide, 20 nM GSK-3β, 30° C
T2 construct: GSK-3β (AA 1-420)
Method in brief: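 Ki values come from reaction rates over 10 min at 30 °C as a function of inhibitor concentration (12-point titration, 0.002–30 μM, 10 min preincubation). GSK-3β (AA 1-420, 20 nM) phosphorylated 300 μM primed peptide with 20 μM ATP; ADP formation followed by coupled NADH oxidation, pH 7.5.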

T2 sequence (P49841 whole entry, the tested form may be a part): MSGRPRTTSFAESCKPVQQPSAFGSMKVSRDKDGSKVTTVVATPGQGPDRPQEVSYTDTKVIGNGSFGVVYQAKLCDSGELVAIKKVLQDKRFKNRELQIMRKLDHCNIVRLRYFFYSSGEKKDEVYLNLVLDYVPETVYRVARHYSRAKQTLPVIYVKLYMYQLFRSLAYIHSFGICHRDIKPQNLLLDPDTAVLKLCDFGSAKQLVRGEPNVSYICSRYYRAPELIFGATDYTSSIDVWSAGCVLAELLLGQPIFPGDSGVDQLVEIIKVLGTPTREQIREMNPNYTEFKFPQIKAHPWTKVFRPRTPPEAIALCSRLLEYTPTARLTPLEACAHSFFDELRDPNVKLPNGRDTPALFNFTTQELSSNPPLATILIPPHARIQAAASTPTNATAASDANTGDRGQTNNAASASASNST

Row | Ki [1] | Ki [2] | melting point | SMILES
1 | 1000 to 20000 nM | < 100 nM | – | Fc1ccc2[nH]nc(Nc3nc(-c4ccccc4C(F)(F)F)nc4c3CCC4)c2c1 [II-107, (5-Fluoro-1H-indazol-3-yl)-[2-(2-trifluoromethyl-phenyl)-6,7-dihydro-5H-cyclopentapyrimidin-4-yl]-amine]
2 | 100 to 1000 nM | 100 to 1000 nM | – | c1ccc(-c2nc(Nc3n[nH]c4ccccc34)c3ccccc3n2)cc1 [III-1, (1H-Indazol-3-yl)-(2-phenyl-quinazolin-4-yl)-amine]
3 | < 100 nM | < 100 nM | – | Cc1cc(Nc2nc(-c3ccccc3)nc3c2CCCC3)n[nH]1 [III-7, (5-Methyl-2H-pyrazol-3-yl)-(2-phenyl-5,6,7,8-tetrahydroquinazolin-4-yl)-amine]
4 | < 100 nM | < 100 nM | – | Cc1cc(Nc2nc(-c3ccncc3)nc3ccccc23)n[nH]1 [III-9, (5-Methyl-2H-pyrazol-3-yl)-(2-pyridin-4-yl-quinazolin-4-yl)-amine]
5 | 100 to 1000 nM | 100 to 1000 nM | – | Cc1cc(Nc2nc(-c3ccncc3)nc3cc(Cl)ccc23)[nH]n1 [III-28, (7-Chloro-2-pyridin-4-yl-quinazolin-4-yl)-(5-methyl-2H-pyrazol-3-yl)-amine]
6 | < 100 nM | < 100 nM | – | Cc1cc(Nc2nc(C3CCCCC3)nc3ccccc23)[nH]n1 [III-30, (2-Cyclohexyl-quinazolin-4-yl)-(5-methyl-2H-pyrazol-3-yl)-amine]
7 | – | – | 228 °C | Cc1cc(Nc2nc(-c3cc(Cl)cc(Cl)c3)nc3ccccc23)[nH]n1 [III-36, [2-(3,5-Dichlorophenyl)-quinazolin-4-yl]-(5-methyl-2H-pyrazol-3-yl)-amine]
8 | < 100 nM | < 100 nM | – | Clc1ccc(-c2nc(Nc3cc(C4CC4)n[nH]3)c3ccccc3n2)cc1Cl [III-46, (5-Cyclopropyl-2H-pyrazol-3-yl)-[2-(3,4-dichlorophenyl)-quinazolin-4-yl]-amine]
9 | < 100 nM | 100 to 1000 nM | – | Cc1cccc(-c2nc(Nc3cc(C)n[nH]3)c3ccccc3n2)c1 [III-50, [2-(3-Methylphenyl)-quinazolin-4-yl]-(5-methyl-2H-pyrazol-3-yl)-amine]
10 | < 100 nM | < 100 nM | – | Cc1cc(Nc2nc(-c3cc(F)cc(F)c3)nc3ccccc23)[nH]n1 [III-51, [2-(3,5-Difluorophenyl)-quinazolin-4-yl]-(5-methyl-2H-pyrazol-3-yl)-amine]
11 | < 100 nM | < 100 nM | – | Cc1cc(Nc2nc(-c3ccc(F)c(Cl)c3)nc3ccccc23)[nH]n1 [III-52, [2-(3-Chloro-4-fluorophenyl)-quinazolin-4-yl]-(5-methyl-2H-pyrazol-3-yl)-amine]
12 | < 100 nM | < 100 nM | – | Cc1cc(Nc2nc(-c3cccc(C(F)(F)F)c3)nc3ccccc23)[nH]n1 [III-53, (5-Methyl-2H-pyrazol-3-yl)-[2-(3-trifluoromethylphenyl)-quinazolin-4-yl]-amine]
13 | < 100 nM | < 100 nM | – | Cc1cc(Nc2nc(-c3cccc(C#N)c3)nc3ccccc23)[nH]n1 [III-54, [2-(3-Cyanophenyl)-quinazolin-4-yl]-(5-methyl-2H-pyrazol-3-yl)-amine]
14 | < 100 nM | < 100 nM | – | Cc1cc(Nc2nc(-c3cccc(C(C)C)c3)nc3ccccc23)[nH]n1 [III-55, [2-(3-Isopropylphenyl)-quinazolin-4-yl]-(5-methyl-2H-pyrazol-3-yl)-amine]
15 | < 100 nM | < 100 nM | – | Cc1cc(Nc2nc(-c3cccnc3)nc3ccccc23)[nH]n1 [III-56, (5-Methyl-2H-pyrazol-3-yl)-(2-pyridin-3-yl-quinazolin-4-yl)-amine]
16 | < 100 nM | < 100 nM | – | CC(=O)c1cccc(-c2nc(Nc3cc(C)n[nH]3)c3ccccc3n2)c1 [III-57, [2-(3-Acetylphenyl)-quinazolin-4-yl]-(5-methyl-2H-pyrazol-3-yl)-amine]
17 | 100 to 1000 nM | < 100 nM | – | Cc1cc(Nc2nc(-c3cc(C(F)(F)F)cc(C(F)(F)F)c3)nc3ccccc23)[nH]n1 [III-58, [2-(3,5-Ditrifluoromethylphenyl)-quinazolin-4-yl]-(5-methyl-2H-pyrazol-3-yl)-amine]
18 | < 100 nM | < 100 nM | – | Cc1cc(Nc2nc(-c3cccc(CO)c3)nc3ccccc23)[nH]n1 [III-59, [2-(3-Hydroxymethylphenyl)-quinazolin-4-yl]-(5-methyl-2H-pyrazol-3-yl)-amine]

Row | Ki [1] | Ki [2] | melting point | SMILES
19 | – | – | > 300 °C | CC(C)(C)c1cc(Nc2nc(-c3ccncc3)nc3ccccc23)[nH]n1 [III-69, (5-tert-Butyl-2H-pyrazol-3-yl)-(2-pyridin-4-yl-quinazolin-4-yl)-amine]
20 | – | – | 289 to 291 °C (dec.) | O=C(O)c1cc(Nc2nc(-c3ccccc3)nc3ccccc23)[nH]n1 [III-72, (5-Carboxy-2H-pyrazol-3-yl)-(2-phenyl-quinazolin-4-yl)-amine]
21 | 1000 to 20000 nM | 100 to 1000 nM | – | C=CCNC(=O)c1cc(Nc2nc(-c3ccccc3)nc3ccccc23)[nH]n1 [III-82, (5-Allylcarbamoyl-2H-pyrazol-3-yl)-(2-phenyl-quinazolin-4-yl)-amine]
22 | – | – | 223 to 224 °C | Cc1cc(Nc2nc(N3CCOCC3)nc3ccccc23)[nH]n1 [III-104, (5-Methyl-2H-pyrazol-3-yl)-(2-morpholin-4-yl-quinazolin-4-yl)-amine]
23 | 100 to 1000 nM | 100 to 1000 nM | – | OCc1cc(Nc2nc(N3CCCCC3)nc3ccccc23)[nH]n1 [III-124, (5-Hydroxymethyl-2H-pyrazol-3-yl)-[2-(piperidin-1-yl)-quinazolin-4-yl]-amine]
24 | 1000 to 20000 nM | < 100 nM | – | Fc1cc(F)c2n[nH]c(Nc3nc(-c4ccccc4)nc4c3CCCC4)c2c1 [III-127, (5,7-Difluoro-1H-indazol-3-yl)-(2-phenyl-5,6,7,8-tetrahydroquinazolin-4-yl)-amine]
25 | 1000 to 20000 nM | 100 to 1000 nM | – | Fc1cccc2c(Nc3nc(-c4ccccc4)nc4ccccc34)[nH]nc12 [III-129, (7-Fluoro-1H-indazol-3-yl)-(2-phenyl-quinazolin-4-yl)-amine]
26 | 100 to 1000 nM | < 100 nM | – | Fc1ccc2n[nH]c(Nc3nc(-c4ccccc4)nc4ccccc34)c2c1 [III-130, (5-Fluoro-1H-indazol-3-yl)-(2-phenyl-quinazolin-4-yl)-amine]
27 | 1000 to 20000 nM | 100 to 1000 nM | – | FC(F)(F)c1cccc(-c2nc(Nc3[nH]nc4ccccc34)c3ccccc3n2)c1 [III-132, (1H-Indazol-3-yl)-[2-(3-trifluoromethyl-phenyl)-quinazolin-4-yl]-amine]
28 | 1000 to 20000 nM | < 100 nM | – | c1ccc2c(Nc3n[nH]c4ccccc34)nc(-n3ccnc3)nc2c1 [III-141, (2-imidazol-1-yl-quinazolin-4-yl)-(1H-indazol-3-yl)-amine]
29 | – | – | 245 to 246 °C | Cc1cc(Nc2ccnc(-c3ccccc3)n2)n[nH]1 [IV-1, (5-Methyl-2H-pyrazol-3-yl)-(2-phenyl-pyrimidin-4-yl)-amine]
30 | – | – | 235 to 236 °C | CC(=O)Nc1ccc(Sc2cc(Nc3cc(C)[nH]n3)nc(-c3ccccc3)n2)cc1 [IV-3, [6-(4-Acetamidophenylsulfanyl)-2-phenyl-pyrimidin-4-yl]-(5-methyl-2H-pyrazol-3-yl)-amine]
31 | – | – | 215 to 216 °C | Cc1cc(Nc2ccnc(N3CCC(C)CC3)n2)n[nH]1 [IV-4, [2-(4-Methylpiperidin-1-yl)-pyrimidin-4-yl]-(5-methyl-2H-pyrazol-3-yl)-amine]
32 | – | – | 185 to 187 °C | Cc1cc(Nc2nc(N3CCC(C)CC3)ncc2[N+](=O)[O-])[nH]n1 [IV-5, [2-(4-Methylpiperidin-1-yl)-5-nitropyrimidin-4-yl]-(5-methyl-2H-pyrazol-3-yl)-amine]
33 | < 100 nM | < 100 nM | – | CC1CCN(c2nc(Nc3cc(C4CC4)n[nH]3)c3nccc-3[nH]2)CC1 [IV-34, (5-Cyclopropyl-2H-pyrazol-3-yl)-[2-(4-methylpiperidin-1-yl)-pyrrolo[3,2-d]pyrimidin-4-yl]-amine]
34 | 1000 to 20000 nM | < 100 nM | – | FC(F)(F)c1ccccc1-c1nc(Nc2nc[nH]n2)c2ccccc2n1 [IX-47, (2H-[1,2,4]-Triazol-3-yl)-[2-(2-trifluoromethylphenyl)-quinazolin-4-yl]-amine]
35 | 1000 to 20000 nM | 100 to 1000 nM | – | FC(F)(F)c1ccccc1-c1cc(Nc2nc[nH]n2)c2ccccc2n1 [IX-177, (1H-[1,2,4]triazol-3-yl)-[2-(2-trifluoromethyl-phenyl)-quinolin-4-yl]-amine]
